# Assay results: PMC6409085, “Three odorant-binding proteins are involved in the behavioral response of Sogatella furcifera to rice plant volatiles” (PeerJ, 2019)
# pIC50: −log10 of the molar value. Where “and” joins values, the source holds several entries; their conditions need not be identical. Equal values may be shown once.
# Experiments:
# Assay in all cases: biochemical
# Assay type in all cases: binding
# SfurOBP1 = SfurOBP1 (Sogatella furcifera, UniProt V5T8N5); conditions: for Fluorescence competitive binding assay, fluorescence intensity: OBP1, three replicate columns
# How it was run: (§1)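 Protein 2.0 µM + 1-NPN 2.0 µM, 50 mM Tris-HCl pH 7.4; competitor odorants 2, 4 … 20 µM final; read 2 min post-addition, ex 337/em 390–490 nm; n=3. K1-NPN from 1-NPN titration/Scatchard; Ki from IC50 corrected for free 1-NPN.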
# SfurOBP11 = SfurOBP11 (Sogatella furcifera, UniProt V5T6E3)
# How it was run: as §1
# SfurOBP2 = SfurOBP2 (Sogatella furcifera, UniProt V5T759)
# How it was run: as §1
# SfurOBP3 = SfurOBP3 (Sogatella furcifera, UniProt V5T818); conditions: for Fluorescence competitive binding assay, fluorescence intensity: OBP3, three replicate columns
# How it was run: as §1
# Sequence of SfurOBP2 (V5T759 entry or part of it): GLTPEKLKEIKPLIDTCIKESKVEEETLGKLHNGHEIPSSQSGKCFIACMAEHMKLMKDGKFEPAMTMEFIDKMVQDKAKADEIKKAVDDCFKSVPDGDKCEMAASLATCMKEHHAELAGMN
# Sequence of SfurOBP11 (V5T6E3 entry or part of it): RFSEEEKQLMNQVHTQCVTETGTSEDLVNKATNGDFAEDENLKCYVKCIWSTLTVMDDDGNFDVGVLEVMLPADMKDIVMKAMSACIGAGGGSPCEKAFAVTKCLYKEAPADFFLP
# Sequence of SfurOBP3 (V5T818 entry or part of it): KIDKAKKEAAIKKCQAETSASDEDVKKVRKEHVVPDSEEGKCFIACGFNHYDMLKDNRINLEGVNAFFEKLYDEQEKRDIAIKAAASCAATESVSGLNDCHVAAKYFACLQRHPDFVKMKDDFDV
# Sequence of SfurOBP1 (V5T8N5 entry or part of it): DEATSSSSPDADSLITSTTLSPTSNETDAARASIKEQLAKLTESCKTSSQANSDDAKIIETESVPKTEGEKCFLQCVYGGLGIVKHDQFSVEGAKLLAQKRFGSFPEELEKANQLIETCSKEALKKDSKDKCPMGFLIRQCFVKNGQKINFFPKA
smiles,measurement,setting,value
c1ccc2ccccc2c1 [naphthalene],pIC50,SfurOBP1,< 4.70
same,"Fluorescence competitive binding assay, fluorescence intensity",SfurOBP1; ligand concentration 2 (μM),5483 and 5608 and 5501
same,"Fluorescence competitive binding assay, fluorescence intensity",SfurOBP1; ligand concentration 4 (μM),5830 and 5745 and 5659
same,"Fluorescence competitive binding assay, fluorescence intensity",SfurOBP1; ligand concentration 6 (μM),5799 and 5826 and 5942
same,"Fluorescence competitive binding assay, fluorescence intensity",SfurOBP1; ligand concentration 8 (μM),6002 and 5983 and 5964
same,"Fluorescence competitive binding assay, fluorescence intensity",SfurOBP1; ligand concentration 10 (μM),5834 and 6388 and 6102
same,"Fluorescence competitive binding assay, fluorescence intensity",SfurOBP1; ligand concentration 12 (μM),6285 and 6121 and 6209
same,"Fluorescence competitive binding assay, fluorescence intensity",SfurOBP1; ligand concentration 14 (μM),6231 and 6194 and 6297
same,"Fluorescence competitive binding assay, fluorescence intensity",SfurOBP1; ligand concentration 16 (μM),6398 and 6743 and 6035
same,"Fluorescence competitive binding assay, fluorescence intensity",SfurOBP1; ligand concentration 18 (μM),6548 and 7178 and 7195
same,"Fluorescence competitive binding assay, fluorescence intensity",SfurOBP1; ligand concentration 20 (μM),7389 and 7177 and 6994
same,pIC50,SfurOBP11,< 4.70
same,"Fluorescence intensity, fluorescence competitive binding assay, OBP11","SfurOBP11; ligand concentration 2, replicate 1",34403
same,"Fluorescence intensity, fluorescence competitive binding assay, OBP11","SfurOBP11; ligand concentration 2, replicate 2",32473
same,"Fluorescence intensity, fluorescence competitive binding assay, OBP11","SfurOBP11; ligand concentration 2, replicate 3",34898
same,"Fluorescence intensity, fluorescence competitive binding assay, OBP11","SfurOBP11; ligand concentration 4, replicate 1",34130
same,"Fluorescence intensity, fluorescence competitive binding assay, OBP11","SfurOBP11; ligand concentration 4, replicate 2",34738
same,"Fluorescence intensity, fluorescence competitive binding assay, OBP11","SfurOBP11; ligand concentration 4, replicate 3",32492
same,"Fluorescence intensity, fluorescence competitive binding assay, OBP11","SfurOBP11; ligand concentration 6, replicate 1",35498
same,"Fluorescence intensity, fluorescence competitive binding assay, OBP11","SfurOBP11; ligand concentration 6, replicate 2",33550
same,"Fluorescence intensity, fluorescence competitive binding assay, OBP11","SfurOBP11; ligand concentration 6, replicate 3",32552
same,"Fluorescence intensity, fluorescence competitive binding assay, OBP11","SfurOBP11; ligand concentration 8, replicate 1",32155
same,"Fluorescence intensity, fluorescence competitive binding assay, OBP11","SfurOBP11; ligand concentration 8, replicate 2",35048
same,"Fluorescence intensity, fluorescence competitive binding assay, OBP11","SfurOBP11; ligand concentration 8, replicate 3",30051
same,"Fluorescence intensity, fluorescence competitive binding assay, OBP11","SfurOBP11; ligand concentration 10, replicate 1",30839
same,"Fluorescence intensity, fluorescence competitive binding assay, OBP11","SfurOBP11; ligand concentration 10, replicate 2",29352
same,"Fluorescence intensity, fluorescence competitive binding assay, OBP11","SfurOBP11; ligand concentration 10, replicate 3",29736
same,"Fluorescence intensity, fluorescence competitive binding assay, OBP11","SfurOBP11; ligand concentration 12, replicate 1",30215
same,"Fluorescence intensity, fluorescence competitive binding assay, OBP11","SfurOBP11; ligand concentration 12, replicate 2",28382
same,"Fluorescence intensity, fluorescence competitive binding assay, OBP11","SfurOBP11; ligand concentration 12, replicate 3",27824
same,"Fluorescence intensity, fluorescence competitive binding assay, OBP11","SfurOBP11; ligand concentration 14, replicate 1",26586
same,"Fluorescence intensity, fluorescence competitive binding assay, OBP11","SfurOBP11; ligand concentration 14, replicate 2",26869
same,"Fluorescence intensity, fluorescence competitive binding assay, OBP11","SfurOBP11; ligand concentration 14, replicate 3",27309
same,"Fluorescence intensity, fluorescence competitive binding assay, OBP11","SfurOBP11; ligand concentration 16, replicate 1",25698
same,"Fluorescence intensity, fluorescence competitive binding assay, OBP11","SfurOBP11; ligand concentration 16, replicate 2",25045
same,"Fluorescence intensity, fluorescence competitive binding assay, OBP11","SfurOBP11; ligand concentration 16, replicate 3",25361
same,"Fluorescence intensity, fluorescence competitive binding assay, OBP11","SfurOBP11; ligand concentration 18, replicate 1",25004
same,"Fluorescence intensity, fluorescence competitive binding assay, OBP11","SfurOBP11; ligand concentration 18, replicate 2",25141
same,"Fluorescence intensity, fluorescence competitive binding assay, OBP11","SfurOBP11; ligand concentration 18, replicate 3",24946
same,"Fluorescence intensity, fluorescence competitive binding assay, OBP11","SfurOBP11; ligand concentration 20, replicate 1",23792
same,"Fluorescence intensity, fluorescence competitive binding assay, OBP11","SfurOBP11; ligand concentration 20, replicate 2",23804
same,"Fluorescence intensity, fluorescence competitive binding assay, OBP11","SfurOBP11; ligand concentration 20, replicate 3",23815
same,pIC50,SfurOBP2,< 4.70
same,"Fluorescence competitive binding assay, OBP2 (raw fluorescence reading)","SfurOBP2; ligand concentration 2 (unit not given), replicate column 1 of 3",21005
same,"Fluorescence competitive binding assay, OBP2 (raw fluorescence reading)","SfurOBP2; ligand concentration 2 (unit not given), replicate column 2 of 3",21502
same,"Fluorescence competitive binding assay, OBP2 (raw fluorescence reading)","SfurOBP2; ligand concentration 2 (unit not given), replicate column 3 of 3",19080
same,"Fluorescence competitive binding assay, OBP2 (raw fluorescence reading)","SfurOBP2; ligand concentration 4 (unit not given), replicate column 1 of 3",24365
same,"Fluorescence competitive binding assay, OBP2 (raw fluorescence reading)","SfurOBP2; ligand concentration 4 (unit not given), replicate column 2 of 3",22710
same,"Fluorescence competitive binding assay, OBP2 (raw fluorescence reading)","SfurOBP2; ligand concentration 4 (unit not given), replicate column 3 of 3",24844
same,"Fluorescence competitive binding assay, OBP2 (raw fluorescence reading)","SfurOBP2; ligand concentration 6 (unit not given), replicate column 1 of 3",22191
same,"Fluorescence competitive binding assay, OBP2 (raw fluorescence reading)","SfurOBP2; ligand concentration 6 (unit not given), replicate column 2 of 3",22417
same,"Fluorescence competitive binding assay, OBP2 (raw fluorescence reading)","SfurOBP2; ligand concentration 6 (unit not given), replicate column 3 of 3",22519
same,"Fluorescence competitive binding assay, OBP2 (raw fluorescence reading)","SfurOBP2; ligand concentration 8 (unit not given), replicate column 1 of 3",23158
same,"Fluorescence competitive binding assay, OBP2 (raw fluorescence reading)","SfurOBP2; ligand concentration 8 (unit not given), replicate column 2 of 3",21663
same,"Fluorescence competitive binding assay, OBP2 (raw fluorescence reading)","SfurOBP2; ligand concentration 8 (unit not given), replicate column 3 of 3",20781
same,"Fluorescence competitive binding assay, OBP2 (raw fluorescence reading)","SfurOBP2; ligand concentration 10 (unit not given), replicate column 1 of 3",20596
same,"Fluorescence competitive binding assay, OBP2 (raw fluorescence reading)","SfurOBP2; ligand concentration 10 (unit not given), replicate column 2 of 3",20292
same,"Fluorescence competitive binding assay, OBP2 (raw fluorescence reading)","SfurOBP2; ligand concentration 10 (unit not given), replicate column 3 of 3",20233
same,"Fluorescence competitive binding assay, OBP2 (raw fluorescence reading)","SfurOBP2; ligand concentration 12 (unit not given), replicate column 1 of 3",19697
same,"Fluorescence competitive binding assay, OBP2 (raw fluorescence reading)","SfurOBP2; ligand concentration 12 (unit not given), replicate column 2 of 3",18134
same,"Fluorescence competitive binding assay, OBP2 (raw fluorescence reading)","SfurOBP2; ligand concentration 12 (unit not given), replicate column 3 of 3",19454
same,"Fluorescence competitive binding assay, OBP2 (raw fluorescence reading)","SfurOBP2; ligand concentration 14 (unit not given), replicate column 1 of 3",17572
same,"Fluorescence competitive binding assay, OBP2 (raw fluorescence reading)","SfurOBP2; ligand concentration 14 (unit not given), replicate column 2 of 3",18013
same,"Fluorescence competitive binding assay, OBP2 (raw fluorescence reading)","SfurOBP2; ligand concentration 14 (unit not given), replicate column 3 of 3",17420
same,"Fluorescence competitive binding assay, OBP2 (raw fluorescence reading)","SfurOBP2; ligand concentration 16 (unit not given), replicate column 1 of 3",16408
same,"Fluorescence competitive binding assay, OBP2 (raw fluorescence reading)","SfurOBP2; ligand concentration 16 (unit not given), replicate column 2 of 3",15544
same,"Fluorescence competitive binding assay, OBP2 (raw fluorescence reading)","SfurOBP2; ligand concentration 16 (unit not given), replicate column 3 of 3",15169
same,"Fluorescence competitive binding assay, OBP2 (raw fluorescence reading)","SfurOBP2; ligand concentration 18 (unit not given), replicate column 1 of 3",18334
same,"Fluorescence competitive binding assay, OBP2 (raw fluorescence reading)","SfurOBP2; ligand concentration 18 (unit not given), replicate column 2 of 3",23371
same,"Fluorescence competitive binding assay, OBP2 (raw fluorescence reading)","SfurOBP2; ligand concentration 18 (unit not given), replicate column 3 of 3",18960
same,"Fluorescence competitive binding assay, OBP2 (raw fluorescence reading)","SfurOBP2; ligand concentration 20 (unit not given), replicate column 1 of 3",17296
same,"Fluorescence competitive binding assay, OBP2 (raw fluorescence reading)","SfurOBP2; ligand concentration 20 (unit not given), replicate column 2 of 3",16882
same,"Fluorescence competitive binding assay, OBP2 (raw fluorescence reading)","SfurOBP2; ligand concentration 20 (unit not given), replicate column 3 of 3",15413
same,pIC50,SfurOBP3,< 4.70
same,"Fluorescence competitive binding assay, fluorescence intensity",SfurOBP3; ligand concentration 2,99229 and 86961 and 92264
same,"Fluorescence competitive binding assay, fluorescence intensity",SfurOBP3; ligand concentration 4,97193 and 95605 and 87600
same,"Fluorescence competitive binding assay, fluorescence intensity",SfurOBP3; ligand concentration 6,102900 and 102445 and 98166
same,"Fluorescence competitive binding assay, fluorescence intensity",SfurOBP3; ligand concentration 8,100522 and 107674 and 104095
same,"Fluorescence competitive binding assay, fluorescence intensity",SfurOBP3; ligand concentration 10,49630 and 50618 and 48648
same,"Fluorescence competitive binding assay, fluorescence intensity",SfurOBP3; ligand concentration 12,46251 and 47333 and 45186
same,"Fluorescence competitive binding assay, fluorescence intensity",SfurOBP3; ligand concentration 14,39681 and 44579 and 42492
same,"Fluorescence competitive binding assay, fluorescence intensity",SfurOBP3; ligand concentration 16,42940 and 41521 and 40287
same,"Fluorescence competitive binding assay, fluorescence intensity",SfurOBP3; ligand concentration 18,51522 and 51973 and 51748
same,"Fluorescence competitive binding assay, fluorescence intensity",SfurOBP3; ligand concentration 20,50731 and 60428 and 55580
